According to ChEMBL document CHEMBL1681696, “Discovery of benzimidazole pyrrolidinyl amides as prolylcarboxypeptidase inhibitors” (Bioorg Med Chem Lett, 2011):
Blank lines part the entries; values can stand above or below the molecule they belong to. Active and inactive are the calls of the source. No cut-off for these calls is given here.

Experiments:
[1] = Clearance in mouse at 1 mg/kg, iv and 2 mg/kg, po; type: ADME, organism-based; conditions: in vivo
[2] = Volume of distribution at steady state in mouse at 1 mg/kg, iv and 2 mg/kg, po; type: ADME, organism-based; conditions: in vivo, read-out: Vdss
[3] = molecular target: T1, Lysosomal Pro-X carboxypeptidase (Mus musculus, UniProt Q7TMR0); assay: Inhibition of mouse PrCP
T1 sequence (Q7TMR0 whole entry): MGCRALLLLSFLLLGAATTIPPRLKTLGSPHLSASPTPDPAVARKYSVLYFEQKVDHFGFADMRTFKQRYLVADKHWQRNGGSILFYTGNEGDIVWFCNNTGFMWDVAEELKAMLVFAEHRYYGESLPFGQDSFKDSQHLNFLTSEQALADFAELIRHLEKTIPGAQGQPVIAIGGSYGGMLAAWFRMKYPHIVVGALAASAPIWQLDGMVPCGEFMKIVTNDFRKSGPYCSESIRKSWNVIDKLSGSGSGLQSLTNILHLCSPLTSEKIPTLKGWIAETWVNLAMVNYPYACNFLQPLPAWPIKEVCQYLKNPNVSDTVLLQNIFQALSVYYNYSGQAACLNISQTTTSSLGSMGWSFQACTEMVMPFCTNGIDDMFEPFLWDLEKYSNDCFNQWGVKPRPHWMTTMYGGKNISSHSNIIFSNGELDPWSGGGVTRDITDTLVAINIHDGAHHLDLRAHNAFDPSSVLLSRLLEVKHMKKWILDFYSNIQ

[4] = Oral bioavailability in mouse at 2 mg/kg; type: ADME, organism-based; conditions: in vivo
[5] = molecular target: T1, Lysosomal Pro-X carboxypeptidase; assay: Inhibition of PrCP in mouse plasma assessed as angiotensin 3 cleavage; type: cell-free
[6] = Half life in mouse at 1 mg/kg, iv and 2 mg/kg, po; type: ADME, organism-based; conditions: in vivo
[7] = Ratio of drug level in brain to plasma in wild type CF1 mouse at 0.5 mg/kg after 4 hrs; type: ADME, organism-based; parameters: dose 0.5 mg/kg; conditions: read-out: BPR
[8] = Plasma concentration in eDIO mouse at 12 mg/kg sc by continuous infusion pump qd for 7 days; type: ADME, organism-based; parameters: dose 12 mg/kg, route subcutaneous
Mus musculus [9] = assay: Antiobesity activity in PrCP knockout mouse assessed as reduction of food intake at 12 mg/kg sc by continuous infusion pump qd for 7 days; type: functional, organism-based; parameters: dose 12 mg/kg
Mus musculus [10] = assay: Antiobesity activity in eDIO mouse assessed as reduction of body weight at 12 mg/kg sc by continuous infusion pump qd for 7 days; type: functional, organism-based; parameters: dose 12 mg/kg
[11] = Drug level in mdr1a deficient mouse brain at 0.5 mg/kg after 4 hrs; type: ADME, organism-based; parameters: dose 0.5 mg/kg; conditions: read-out: Drug uptake
[12] = Ratio of drug level in brain to plasma in mdr1a deficient mouse at 0.5 mg/kg after 0.5 hrs; type: ADME, organism-based; parameters: dose 0.5 mg/kg; conditions: read-out: BPR
Mus musculus [13] = species on record: Mus musculus; conditions: Plasma, 30 mg/kg
Description: Inhibition of ex vivo PrCP engagement in eDIO mouse plasma at 30 mg/kg, sc by continuous infusion pump for 7 days

[14] = Drug level in mdr1a deficient mouse plasma at 0.5 mg/kg after 0.5 hrs; type: ADME, organism-based; parameters: dose 0.5 mg/kg; conditions: read-out: Drug uptake
Mus musculus [15] = assay: Antiobesity activity in eDIO mouse assessed as reduction of food intake at 12 mg/kg sc by continuous infusion pump qd for 7 days; type: functional, organism-based; parameters: dose 12 mg/kg
[16] = Drug level in wild type CF1 mouse plasma at 0.5 mg/kg after 0.5 hrs; type: ADME, organism-based; parameters: dose 0.5 mg/kg; conditions: read-out: Drug uptake
[17] = Drug level in mdr1a deficient mouse brain at 0.5 mg/kg after 0.5 hrs; type: ADME, organism-based; parameters: dose 0.5 mg/kg; conditions: read-out: Drug uptake
[18] = Ratio of drug level in brain to plasma in wild type CF1 mouse at 0.5 mg/kg after 0.5 hrs; type: ADME, organism-based; parameters: dose 0.5 mg/kg; conditions: read-out: BPR
[19] = Drug level in wild type CF1 mouse brain at 0.5 mg/kg after 4 hrs; type: ADME, organism-based; parameters: dose 0.5 mg/kg; conditions: read-out: Drug uptake
[20] = Ratio of drug level in brain to plasma in mdr1a deficient mouse at 0.5 mg/kg after 4 hrs; type: ADME, organism-based; parameters: dose 0.5 mg/kg; conditions: read-out: BPR
[21] = Plasma concentration in eDIO mouse at 10 to 60 mg/kg, sc by continuous infusion pump for 7 days; type: ADME, organism-based; parameters: dose 10-60 mg/kg, route subcutaneous
[22] = Plasma concentration in PrCP knockout mouse at 12 mg/kg sc by continuous infusion pump qd for 7 days; type: ADME, organism-based; parameters: dose 12 mg/kg, route subcutaneous
Mus musculus [23] = species on record: Mus musculus; conditions: Plasma, 10 mg/kg
Description: Inhibition of ex vivo PrCP engagement in eDIO mouse plasma at 10 mg/kg, sc by continuous infusion pump for 7 days

[24] = Drug level in wild type CF1 mouse brain at 0.5 mg/kg after 0.5 hrs; type: ADME, organism-based; parameters: dose 0.5 mg/kg; conditions: read-out: Drug uptake
[25] = Drug level in wild type CF1 mouse plasma at 0.5 mg/kg after 4 hrs; type: ADME, organism-based; parameters: dose 0.5 mg/kg; conditions: read-out: Drug uptake
Mus musculus [26] = assay: Inhibition of ex vivo PrCP engagement in eDIO mouse plasma at 60 mg/kg, sc by continuous infusion pump for 7 days; type: functional; conditions: 168 h, route subcutaneous
[27] = Drug level in mdr1a deficient mouse plasma at 0.5 mg/kg after 4 hrs; type: ADME, organism-based; parameters: dose 0.5 mg/kg; conditions: read-out: Drug uptake
Mus musculus [28] = assay: Antiobesity activity in PrCP knockout mouse assessed as reduction of body weight at 12 mg/kg sc by continuous infusion pump qd for 7 days; type: functional, organism-based; parameters: dose 12 mg/kg
Mus musculus [29] = assay: Inhibition of ex vivo PrCP engagement in eDIO mouse plasma at 60 mg/kg, sc by continuous infusion pump for 7 days additionally treated 2 uM of compound; type: functional; conditions: 168 h, route subcutaneous
[30] = molecular target: T2, Lysosomal Pro-X carboxypeptidase (Homo sapiens) (UniProt P42785); assay: Inhibition of human PrCP at 5 uM
T2 sequence (whole entry): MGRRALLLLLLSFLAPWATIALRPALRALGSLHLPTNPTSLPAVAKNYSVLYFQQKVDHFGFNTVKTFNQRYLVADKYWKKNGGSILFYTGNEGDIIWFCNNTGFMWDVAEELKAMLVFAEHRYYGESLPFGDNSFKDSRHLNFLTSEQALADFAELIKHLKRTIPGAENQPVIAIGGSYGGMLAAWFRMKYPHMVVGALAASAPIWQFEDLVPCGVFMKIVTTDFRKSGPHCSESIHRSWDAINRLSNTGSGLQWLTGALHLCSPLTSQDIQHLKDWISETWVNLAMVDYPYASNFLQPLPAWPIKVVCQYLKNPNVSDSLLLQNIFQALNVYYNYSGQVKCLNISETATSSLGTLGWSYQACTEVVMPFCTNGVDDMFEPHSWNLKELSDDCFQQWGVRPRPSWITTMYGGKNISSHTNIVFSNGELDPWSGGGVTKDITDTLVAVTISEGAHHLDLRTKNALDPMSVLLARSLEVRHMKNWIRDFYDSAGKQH

- IC50 [3]: 0.0035 µM
- IC50 [5]: 0.173 µM
SMILES: O=C(CCN1CCC(c2nc(-c3ccccn3)no2)CC1)N1CCC[C@H]1c1nc2cc(Cl)c(Cl)cc2[nH]1

- IC50 [5]: 0.485 µM
SMILES: O=C(CCN1CCC(c2cc(-c3ccncc3)[nH]n2)CC1)N1CCC[C@H]1c1nc2cc(Cl)c(Cl)cc2[nH]1

- IC50 [5]: 8 µM
SMILES: O=C(CCN1CCC(c2cnccn2)CC1)N1CCC[C@H]1c1nc2cc(Cl)c(Cl)cc2[nH]1

- IC50 [5]: > 10 µM
SMILES: O=C(CCN1CCC(c2ccccc2)CC1)N1CCC[C@H]1c1nc2cc(Cl)c(Cl)cc2[nH]1

- IC50 [3]: 0.107 µM
SMILES: O=C(CCN1CCC(c2cn[nH]c2)CC1)N1CCC[C@H]1c1nc2cc(Cl)c(Cl)cc2[nH]1

- IC50 [5]: 0.039 µM
SMILES: Cn1nc(C2CCN(CCC(=O)N3CCC[C@H]3c3nc4cc(Cl)c(Cl)cc4[nH]3)CC2)cc1-c1cccnc1

- IC50 [5]: > 10 µM
SMILES: O=C(CCN1CCN(c2ccccc2)CC1)N1CCC[C@H]1c1nc2cc(Cl)c(Cl)cc2[nH]1

- IC50 [5]: 0.29 µM
SMILES: O=C(CCN1CCC(c2cc[nH]n2)CC1)N1CCC[C@H]1c1nc2cc(Cl)c(Cl)cc2[nH]1

- inhibition [30]: 93%
SMILES: O=C(CCN1CCC(c2ccccc2)C1)N1CCC[C@H]1c1nc2cc(Cl)c(Cl)cc2[nH]1 (stereo partly drawn)

- IC50 [5]: 0.43 µM
SMILES: O=C(CCN1CCC(c2ccncc2)CC1)N1CCC[C@H]1c1nc2cc(Cl)c(Cl)cc2[nH]1

More lines, now with the values behind:

SMILES: CC(C)(CCCC(=O)N1CCC[C@H]1c1nc2cc(Cl)c(Cl)cc2[nH]1)N1CCC(c2nc(-c3ccccn3)no2)CC1
- clearance [1]: 3.6 L/h/kg
- Vd [2]: 12 L/kg
- IC50 [3]: 0.019 µM
- bioavailability [4]: 3%
- IC50 [5]: 0.113 µM
- half-life [6]: 3.1 h

SMILES: CS(=O)(=O)c1ccc(-c2noc(C3CCN(CCC(=O)N4CCC[C@H]4c4nc5cc(Cl)c(Cl)cc5[nH]4)CC3)n2)cc1
- clearance [1]: 3.24 L/h/kg
- Vd [2]: 7.7 L/kg
- IC50 [3]: 0.00041 µM
- bioavailability [4]: 14%
- IC50 [5]: 0.01 µM
- half-life [6]: 2.2 h

SMILES: O=C(CCN1CCC(c2nc(-c3cnccn3)no2)CC1)N1CCC[C@H]1c1nc2cc(Cl)c(Cl)cc2[nH]1
- IC50 [5]: 0.435 µM

SMILES: Cn1nc(C2CCN(CCC(=O)N3CCC[C@H]3c3nc4cc(Cl)c(Cl)cc4[nH]3)CC2)cc1-c1ccncc1
- Kp at 4 h [7]: 0.88
- concentration at 168 h [8]: 0.21 µM
- Activity (Mus musculus [9]): Active
- Activity (Mus musculus [10]): Active
- concentration at 4 h [11]: 0.054 µM
- Kp at 0.5 h [12]: 1.4
- inhibition (Mus musculus [13]): Active
- clearance [1]: 3.9 L/h/kg
- concentration at 0.5 h [14]: 0.051 µM
- Vd [2]: 9.4 L/kg
- IC50 [3]: 0.0008 µM
- Activity (Mus musculus [15]): Active
- concentration at 0.5 h [16]: 0.054 µM
- bioavailability [4]: 4%
- concentration at 0.5 h [17]: 0.07 µM
- Kp at 0.5 h [18]: 0.2
- concentration at 4 h [19]: 0.004 µM
- Kp at 4 h [20]: 13
- concentration at 168 h [21]: 0.09 µM
- concentration at 168 h [22]: 0.29 µM
- inhibition (Mus musculus [23]): Active
- IC50 [5]: 0.0067 µM
- concentration at 0.5 h [24]: 0.01 µM
- half-life [6]: 4.1 h
- concentration at 4 h [25]: 0.0046 µM
- inhibition in vivo at 60 mg/kg (Mus musculus [26]): 55%
- concentration at 4 h [27]: 0.004 µM
- Activity (Mus musculus [28]): Active
- inhibition in vivo at 60 mg/kg (Mus musculus [29]): 80%

SMILES: O=C(CCN1CCC(c2nc(-c3cccnc3)no2)CC1)N1CCC[C@H]1c1nc2cc(Cl)c(Cl)cc2[nH]1
- IC50 [5]: 0.155 µM

SMILES: O=C(CCN1CCC(c2nc(-c3ccncc3)no2)CC1)N1CCC[C@H]1c1nc2cc(Cl)c(Cl)cc2[nH]1
- clearance [1]: 2.28 L/h/kg
- Vd [2]: 5.7 L/kg
- IC50 [3]: 0.00053 µM
- bioavailability [4]: 8%
- IC50 [5]: 0.029 µM
- half-life [6]: 4.9 h

SMILES: O=C(CCN1CCC(n2ncnn2)CC1)N1CCC[C@H]1c1nc2cc(Cl)c(Cl)cc2[nH]1
- IC50 [5]: 2.9 µM

SMILES: O=C(CCN1CCC(c2nc(-c3ncccn3)no2)CC1)N1CCC[C@H]1c1nc2cc(Cl)c(Cl)cc2[nH]1
- IC50 [5]: 0.745 µM

SMILES: O=C(O)c1ccc(-c2noc(C3CCN(CCC(=O)N4CCC[C@H]4c4nc5cc(Cl)c(Cl)cc5[nH]4)CC3)n2)cc1
- IC50 [5]: 0.241 µM

SMILES: CS(=O)(=O)c1ccc(-c2noc(C3CCN(CCC(=O)N4CCC[C@H]4c4nc5cc(Cl)c(Cl)cc5[nH]4)C(=O)C3)n2)cc1 (stereo partly drawn)
- clearance [1]: 6.9 L/h/kg
- Vd [2]: 3 L/kg
- bioavailability [4]: 3%
- IC50 [5]: 0.425 µM
- half-life [6]: 1.3 h
